This is an account of results in paper PMC4102417 (PLoS Neglected Tropical Diseases, 2014).

Structures are written as SMILES. Where a name gives a salt, the structure may show the parent alone.

Experiment [1] deals with T. cruzi (Tulahuen strain). The experiment can be described thus: microbe, parasite or virus in culture. The experiment is classed as cell-based, Trypanosoma cruzi. The following applies: 10 uM, Table S2; for activity at 10 µM: Trypanosoma cruzi, TULAHUEN, Fibroblast, 120 h, read-out: T. cruzi % growth @ 10 uM (Amastigotes). On the procedure: Compounds were tested against T. cruzi (Tulahuen strain) stably expressing the beta-galactosidase gene as previously described. […] Fibroblasts were plated at a density of 2×10^3 per well in 96 well tissue culture plates. After 24 hours of incubation, 1×10^4 trypomastigotes/well were added to the fibroblasts and incubated for 4 hours before addition of the test compounds from the Spectrum Collection (10 µM final concentration). Cultures were incubated at 37°C for 5 days, then developed with chlorophenol red β-D-galactopyranoside as previously described. The percent inhibition is reported with standard deviation of the mean. […] Z-prime values were calculated for each 96-well plate based on positive (4 wells) and negative controls (4 wells).

Another experiment relates to 3T3 fibroblast cells. In words: cells. The following applies: 10 uM, Table S2; for activity at 10 µM: Mus musculus, NIH3T3, 72 h, read-out: Mammalian (3T3) cell % growth at 10 uM. Format: cell-based, murine.

`C=C1C2CCC3(C)C(c4ccoc4)OC(=O)CC13OC1CC(OC(C)=O)C(C)(C)C(CC(=O)OC)C12C` (stereo not drawn) [methyl 2-[5-(acetyloxy)-13-(furan-3-yl)-6,6,8,12-tetramethyl-17-methylidene-15-oxo-2,14-dioxatetracyclo[7.7.1.0^{1,12}.0^{3,8}]heptadecan-7-yl]acetate]: the figures for the activity at 10 µM (in experiment [1]; in the experiment with 3T3 fibroblast cells) were 1% and 84.1%, respectively.

For the molecule `CN(C)CCCN1c2ccccc2Sc2ccccc21` [PROMAZINE, dimethyl[3-(10H-phenothiazin-10-yl)propyl]amine hydrochloride], the activity at 10 µM in experiment [1] is 9.2%; with 3T3 fibroblast cells it was 98.7%.

Consider `COc1ccc(CCN2CCC(Nc3nc4ccccc4n3Cc3ccc(F)cc3)CC2)cc1` [ASTEMIZOLE, 1-[(4-fluorophenyl)methyl]-N-{1-[2-(4-methoxyphenyl)ethyl]piperidin-4-yl}-1H-1,3-benzodiazol-2-amine], for which the activity at 10 µM turned out to be 11.6% in experiment [1] and 100% in the experiment on 3T3 fibroblast cells.

`COc1ccc(-c2cc(=O)c3ccccc3o2)cc1` [4'-METHOXYFLAVONE, 2-(4-methoxyphenyl)-4H-chromen-4-one]: the results for the activity at 10 µM (in experiment [1]; in the experiment with 3T3 fibroblast cells) were 18.7% and 100%, respectively.

Turning to `COc1ccc2c(c1)[nH]c1c(C)nccc12` [HARMINE, 7-methoxy-1-methyl-9H-pyrido[3,4-b]indole], the activity at 10 µM in experiment [1] was found to be 7.5%; in the experiment on 3T3 fibroblast cells it was 87.2%.

In the case of `CC(C)CCC[C@@H](C)[C@H]1CC[C@H]2[C@@H]3C(=O)C=C4C[C@@H](O)CC[C@]4(C)[C@H]3CC[C@]12C` [7-OXOCHOLESTEROL, (1S,2R,5S,10S,11S,14R,15R)-5-hydroxy-2,15-dimethyl-14-[(2R)-6-methylheptan-2-yl]tetracyclo[8.7.0.0^{2,7}.0^{11,15}]heptadec-7-en-9-one], the activity at 10 µM in experiment [1] came to 23.4%; with 3T3 fibroblast cells, 68.5%.

In the case of `CC(=O)O[C@@H]1CC2C(C)(C)C(=O)CC[C@]2(C)C2CC[C@]3(C)C(=CC(=O)O[C@H]3c3ccoc3)[C@@]21C` (stereo partly drawn) [DIHYDRODEOXYGEDUNIN], the “T. cruzi % growth @ 10 uM (Amastigotes)” value in experiment [1] is 23.4%. Besides, the “Mammalian (3T3) cell % growth at 10 uM” value in the experiment on 3T3 fibroblast cells is 83.8%.

For the molecule `CC(=O)OC[C@H]1O[C@@H](Oc2cc(OC(C)=O)c3c(=O)cc(-c4ccc(OC(C)=O)cc4)oc3c2)[C@H](OC(C)=O)[C@@H](OC(C)=O)[C@@H]1OC(C)=O` [COSMOSIIN HEXAACETATE], the results for the activity at 10 µM (in experiment [1]; in the experiment on 3T3 fibroblast cells) were 12.9% and 100%, respectively.

Take `Clc1ccc(COC(Cn2ccnc2)c2ccc(Cl)cc2Cl)cc1` (stereo not drawn) [ECONAZOLE, 1-{2-[(4-chlorophenyl)methoxy]-2-(2,4-dichlorophenyl)ethyl}-1H-imidazole]: the activity at 10 µM in experiment [1] was determined as 2.4%; in the experiment with 3T3 fibroblast cells it was 100%.

As to `CC(=O)OC1CCC2(C)C(CC(OC(C)=O)C3(C)C4=CC(=O)OC(c5ccoc5)C4(C)CCC23)C1(C)C` (stereo not drawn) [3-DEOXO-3beta-ACETOXYDEOXYDIHYDROGEDUNIN, 18-(acetyloxy)-6-(furan-3-yl)-1,7,11,15,15-pentamethyl-4-oxo-5-oxatetracyclo[8.8.0.0^{2,7}.0^{11,16}]octadec-2-en-14-yl acetate], the values for the activity at 10 µM (in experiment [1]; in the experiment on 3T3 fibroblast cells) were 7.8% and 100%, respectively.

As for `C[C@@H]1CC[C@@]23CCC4(C)[C@@](C=CC5[C@@]6(C)CCC(=O)C(C)(C)C6CC[C@]54C)(OC2=O)C3[C@H]1C` (stereo partly drawn) [3-OXOURSAN (28-13)OLIDE], the values for the activity at 10 µM (in experiment [1]; with 3T3 fibroblast cells) were 11.1% and 100%, respectively.

As to `CSc1ccc2c(c1)C(N1CCN(C)CC1)Cc1ccccc1S2` (stereo not drawn) [METHIOTHEPIN, (2Z)-but-2-enedioic acid; 1-methyl-4-[6-(methylsulfanyl)-2-thiatricyclo[9.4.0.0^{3,8}]pentadeca-1(15),3,5,7,11,13-hexaen-9-yl]piperazine], the values for the activity at 10 µM (in experiment [1]; with 3T3 fibroblast cells) were 4.4% and 69.6%, respectively.
